Reference: article PMC2360547 (British Journal of Cancer, 2006)
Where “and” joins values, the source holds several entries; their conditions need not be identical. Equal values may be shown once. Entries after “also recorded” stand apart in the source; their conditions may differ. Read-outs that look alike come from different tables or passages of the source.

What was measured:
[1] = Plasma concentrations by HPLC with fluorescence detection; assay type: in vivo, human; details: for concentration at 28 day: human, plasma, oral
Protocol: (§1) Therefore, the tumour tissue was frozen and cut into as small as possible pieces with a scalpel. The pieces were weighed, added to 1 ml of water, vortexed and thereafter treated like plasma. The assay for plasma samples was validated with acceptable calibration curves, within-study variability and total recovery. […] Due to limited availability of tumour tissue, the within-study validation for tumour assay was not performed.

[2] = tested on: patients with advanced cancer; details: ref Propper et al, 2001, cited from earlier work
[3] = tested on: PKC
Protocol: Tumour biopsies were immediately frozen in liquid nitrogen and stored at −70°C until analysis. Heparinised blood (10 ml) was collected predose and at day 28.
Tumours were powdered in liquid nitrogen and homogenised on ice using an Ultra-Turrax in a buffer containing 20 mM HEPES, pH 7.4, 2 mM EDTA, 25 mM β-glycerophosphate, 0.2 mM DTT, 10 μg ml^−1 leupeptin, 10 μg ml^−1 aprotinin, 1 μg ml^−1 pepstatin, 1 μM sodium orthovanadate and 0.5 mM PMSF. Extracts were then sonicated in an ice cold sonicating bath for 5 min before centrifugation at 1000 g for 5 min to remove cellular debris. Supernatants were centrifuged at 50 000 g for 15 min to separate cytosolic (supernatant) and particulate (pellet) fractions. The supernatant was kept as ‘cytosolic’ fraction. The pellet was further extracted by resuspension in the original lysis buffer including 1% NP-40. Following sonication for 5 min on ice, the extract was centrifuged at 50 000 g for 15 min. The supernatant from this spin (which derived from the original pellet) was kept as the ‘particulate’ fraction. All steps were performed at 4°C or on ice.
The protein concentrations of the cytosolic and particulate fractions were measured after TCA precipitation using the Dc protein assay kit (Bio-Rad).
Intratumoral total PKC activity was measured in cytosolic and particulate fractions using protamine sulphate as the substrate, following the method of a validated assay ([Budworth and Gescher, 1995]). The PKC assay was performed with 4–5 μl of the cytosol or particulate extract (2–50 μg protein) in a total reaction volume of 200 μl, including 200 μg ml^−1 protamine sulphate, 150 μM (γ-^32P)ATP (200 c.p.m. pmol^−1) in a buffer containing 20 mM Tris-HCl, pH 7.4, 10 mM magnesium acetate and 0.5 mM EGTA. The reaction was terminated after 6–7 min (30°C) by spotting 35 μl of the mix onto P81 phosphocellulose paper, followed by washing in 75 mM phosphoric acid. Bound, phosphorylated protamine sulphate was quantitated by scintillation counting of the phosphocellulose papers. Protein kinase C activity was determined by phosphate incorporation into protamine sulphate and expressed as picomolar of phosphate transferred min mg^−1 protein. Measurements were performed in triplicate. Each patient's pretreatment and day 28 biopsies were processed together and analysed in the same assay run. Up to six patients’ samples could be analysed in one day to minimise interassay variability.

[4] = Tumour tissue concentrations by HPLC with fluorescence detection; assay type: in vivo, human; details: for Kp at 28 day / concentration at 28 day: human, oral, 10 subjects; for Kp at 28 day: tumour tissue / plasma, 75 mg three times a day, tumour tissue to plasma; for concentration at 28 day: 75 mg tid
Protocol: as §1

[5] = tested on: multidrug resistant cells (R100; CCRF CEM cells resistant to 100 ng ml−1 vinblastine); details: for Percent of potential maximum reversal of multidrug resistance: plasma from patients receiving midostaurin 75 mg t.i.d.
Protocol: This was determined using a previously reported method that assessed the capacity of cremophor EL to inhibit MDR^10. Briefly, the ability of the patient's plasma to modulate ex vivo intracellular daunorubicin accumulation in multidrug resistant cells (R100; CCRF CEM cells resistant to 100 ng ml^−1 vinblastine) was measured using fluorescence detection. The activity of 20 μg ml^−1 Valspodar (PSC833, an inhibitor of P-glycoprotein) added to the patient's prestudy plasma sample defined 100% reversal ([…] of daunorubicin). […] The modulating ability of day 29 plasma samples was determined relative to this. All assays were performed in triplicate. Blank plasma was spiked with 1.0 μl ml^−1 cremophor EL and run as an inter-assay control.

[6] = set-up: method as in Propper et al, 2001; details: Phase I trial, oral; ref Propper et al, 2001; cited from earlier work
[7] = tested on: metastatic melanoma; experiment: Phase IIA clinical trial: tumour response, survival, performance status; assay type: in vivo, human; set-up: key to Best response: PD: progressive disease; SD: stable disease (<25% increase overall diameter of any lesion; no new lesions, after at least 4 weeks); NA: not assessable
From the text: There was no limit on the amount of prior therapy, but no prior chemotherapy or immunotherapy was permitted in the 4 weeks before study entry. Patients with CNS metastases were eligible. At least the first 14 patients entered were also required to have at least two lesions suitable for excision biopsy (skin, subcutaneous metastases). Written informed consent was obtained from all patients and the protocol was approved by the Human Research Ethics Committees of the participating institutions.
This fixed dose schedule was calculated from the Phase I study, in which higher single daily doses were associated with more GIT toxicity.
Patients were reviewed for safety and efficacy of midostaurin weekly for the first month, and then on a monthly basis, or more frequently where symptoms warranted. Disease sites were re-evaluated by clinical examination monthly or CT every 2 months, or more frequently if disease progression was suspected.
It was planned to recruit 14 patients with disease suitable for biopsy as the first cohort. […] If at least one response occurred, a further 13 patients (not necessarily with disease suited for biopsy) would be recruited. Response and toxicity were assessed using WHO criteria.

[8] = one patient resistant to midostaurin with abundance of PKCξ
[9] = 20 μg ml−1 added to pretreatment plasma, 100% = 20 μg ml−1 Valspodar

**Q.** Which results are given for CO[C@@H]1[C@H](N(C)C(=O)c2ccccc2)C[C@H]2O[C@]1(C)n1c3ccccc3c3c4c(c5c6ccccc6n2c5c31)C(=O)NC4 [Midostaurin, N-benzoyl-staurosporine]?
**A.** concentration at 28 day ([1]; 75 mg three times a day, calculated for median plasma concentration of 2342 nM and 99% protein binding, read-out: Free plasma concentration): 23.4 nM; concentration at 28 day ([1]; 75 mg tid, 12 subjects, about 1 month of 75 mg tid, read-out: Plasma concentrations, maximum): 4650 nM; concentration at 28 day ([1]; 75 mg tid, 12 subjects, about 1 month of 75 mg tid, read-out: Plasma concentrations, mean): 2450 nM; concentration at 28 day ([1]; 75 mg tid, 12 subjects, about 1 month of 75 mg tid, read-out: Plasma concentrations, median): 2340 nM; concentration at 28 day ([1]; 75 mg tid, 12 subjects, about 1 month of 75 mg tid, read-out: Plasma concentrations, minimum): 771 nM; concentration at 28 day ([1]; 75 mg tid, 12 subjects, about 1 month of 75 mg tid, read-out: Plasma trough concentrations, range): 771 to 4650 nM; Plasma concentrations ([1]; individual subjects, sampling day 27-30, midostaurin 75 mg tid): 2614 nM and 1639 nM and 771 nM and 2901 nM and 2226 nM and 2387 nM and 4649 nM and 1765 nM and 1437 nM and 2297 nM and 3549 nM and 3212 nM; Response in two patients with cholangiocarcinoma ([2]; for 4 months on midostaurin): one had stable disease and one a partial response; MTD ([2]; oral, 12.5–300 mg day−1): not reached; Patients with nausea/vomiting ([2]; oral, 225–300 mg day−1 (grade 3 in 3)): 15 out of 16; Patients with grade 2 diarrhoea ([2]; oral, 225–300 mg day−1): six out of 16; Effect on phosphorylation of protamine sulphate ([3]; 10 μM added to melanoma biopsies from nontrial patients): inhibited phosphorylation; Reduction of cytosolic PKC activity compared to pretreatment biopsy ([3]; day 28 tumour biopsy, in seven out of nine patients): 7–91%; Change of cytosolic PKC activity [3, 8]: unchanged; Increase in particulate PKC activity [3, 8]: 65%; Percentage of total PKC activity present in the particulate fraction ([3]; patient 10, day 28 (day 0: 19.1%)): 15.4%; Percentage of total PKC activity present in the particulate fraction ([3]; patient 11, day 28 (day 0: 15.7%)): 11.1%; Kp at 28 day ([4]; read-out: Tissue/plasma ratios, maximum): 1.86; Kp at 28 day ([4]; read-out: Tissue/plasma ratios, mean): 0.56; Kp at 28 day ([4]; read-out: Tissue/plasma ratios, median): 0.29; Kp at 28 day ([4]; read-out: Tissue/plasma ratios, minimum): 0.02; concentration at 28 day ([4]; tumour tissue, tumour tissue, about 1 month of 75 mg tid, read-out: Tissue concentrations, maximum): 4250 nM; concentration at 28 day ([4]; tumour tissue, tumour tissue, about 1 month of 75 mg tid, read-out: Tissue concentrations, mean): 1300 nM; concentration at 28 day ([4]; tumour tissue, tumour tissue, about 1 month of 75 mg tid, read-out: Tissue concentrations, median): 593 nM; concentration at 28 day ([4]; tumour tissue, tumour tissue, about 1 month of 75 mg tid, read-out: Tissue concentrations, minimum): 58 nM; Tissue concentrations ([4]; tumour tissue, individual subjects, about 1 month of 75 mg tid): 58 nM and 607 nM and 266 nM and 579 nM and 4142 nM and 550 nM and 1528 nM and 358 nM and 698 nM and 4246 nM; Percent of potential maximal reversal of multidrug resistance, mean [5, 9]: 40%; Percent of potential maximal reversal of multidrug resistance, range [5, 9]: 14–64%; Percent of potential maximum reversal of multidrug resistance ([5]; 10 out of 12 patients): < 10%; Percent of potential maximum reversal of multidrug resistance ([5]; all 12 patients): < 20%; Elimination t1/2, range [6]: 0.9 to 4.0 days; Estimated median elimination t1/2 [6]: 1.6 days; Median survival ([7]; 17 patients, 75 mg p.o. t.i.d.): 43 days; Survival, range ([7]; 17 patients, 75 mg p.o. t.i.d.): 8 to 113 days; Tumour response ([7]; 17 patients, midostaurin 75 mg p.o. t.i.d.): No tumour responses were seen; also recorded: No patient obtained a tumour response; Patients with no change of ECOG performance status ([7]; eight patients, on study): 47%; Patients with progressive disease ([7]; fourteen out of 17 patients, 75 mg p.o. t.i.d.): 82%; Duration of stable disease (best response duration) ([7]; individual patients with stable disease, midostaurin 75 mg p.o. t.i.d.): 50 days and 85 days; Best response ([7]; individual patients, midostaurin 75 mg p.o. t.i.d., WHO criteria): PD and SD (2×); Patients with worsening of ECOG performance status ([7]; nine patients, on study): 53%; Patients with stable disease ([7]; two out of 17 patients, 75 mg p.o. t.i.d.): 12%
